Values of other authors, collected in patent US20020068684A1, “Stripping and cleaning compositions” (priority 1999, published 2002).

Conditions: from CRC tables

PKa: 9.85
SMILES: Oc1ccccc1O [Catechol]
